Structures can show the parent of a compound that is named as a salt. Where two headings read alike, the source gives them in different places.
Assays:
PARP-1 enzyme [1] = target: PARP-1 enzyme (Cricetulus griseus (Chinese hamster) (Cricetulus barabensis griseus), UniProt Q9R152); experiment: Intracellular PARP inhibitory activity (NAD(P)H released by MMS-treated CHO-K1 cells); assay type: cell-based
Protocol: In order to verify the ability of the compounds of the present invention to inhibit the PARP-1 enzyme activity, the amount of NAD(P)H accumulated on cell culture medium was measured.
The Chinese hamster ovary cells (CHO-K1) were cultured in RPMI1640 culture medium containing 10% fetal bovine serum (FBS). The cultured CHO-K1 cells were seeded into 96 well plate by 2.9×10^3 cells/well, and cultured for 16 hours under culture condition of 37° C., 5% CO2. After the culture, the cells were treated with the compounds of the Examples at varying concentrations, and cultured at 37° C. for 2 hours. […] The amount of […] released to the culture medium 3, 4, 5 hours after the treatment with MMS was quantified at 450 nm using Wallac EnVision™ (PerkinElmer Oy, Turku, Finland). The transference numbers of the compounds at varying concentrations according to the present invention are the average values obtained from four wells, and the results were calculated using regression analysis.
The Chinese hamster ovary cells (CHO-K1) were treated with the compounds at varying concentration according to the present invention, and the amount of NAD(P)H released into the culture medium 4 hours after the MMS treatment was quantified.

PARP-1 enzyme [2] = target: PARP-1 enzyme (Homo sapiens (Human), UniProt P09874); experiment: Poly(ADP-ribose)polymerase [PARP-1] enzyme inhibitory activity (Trevigen PARP Assay kit); assay type: biochemical; conditions: read-out: PARP-1 Inhibitory activity IC50
Sequence of PARP-1 enzyme (Homo sapiens (Human), UniProt P09874) (P09874 whole entry): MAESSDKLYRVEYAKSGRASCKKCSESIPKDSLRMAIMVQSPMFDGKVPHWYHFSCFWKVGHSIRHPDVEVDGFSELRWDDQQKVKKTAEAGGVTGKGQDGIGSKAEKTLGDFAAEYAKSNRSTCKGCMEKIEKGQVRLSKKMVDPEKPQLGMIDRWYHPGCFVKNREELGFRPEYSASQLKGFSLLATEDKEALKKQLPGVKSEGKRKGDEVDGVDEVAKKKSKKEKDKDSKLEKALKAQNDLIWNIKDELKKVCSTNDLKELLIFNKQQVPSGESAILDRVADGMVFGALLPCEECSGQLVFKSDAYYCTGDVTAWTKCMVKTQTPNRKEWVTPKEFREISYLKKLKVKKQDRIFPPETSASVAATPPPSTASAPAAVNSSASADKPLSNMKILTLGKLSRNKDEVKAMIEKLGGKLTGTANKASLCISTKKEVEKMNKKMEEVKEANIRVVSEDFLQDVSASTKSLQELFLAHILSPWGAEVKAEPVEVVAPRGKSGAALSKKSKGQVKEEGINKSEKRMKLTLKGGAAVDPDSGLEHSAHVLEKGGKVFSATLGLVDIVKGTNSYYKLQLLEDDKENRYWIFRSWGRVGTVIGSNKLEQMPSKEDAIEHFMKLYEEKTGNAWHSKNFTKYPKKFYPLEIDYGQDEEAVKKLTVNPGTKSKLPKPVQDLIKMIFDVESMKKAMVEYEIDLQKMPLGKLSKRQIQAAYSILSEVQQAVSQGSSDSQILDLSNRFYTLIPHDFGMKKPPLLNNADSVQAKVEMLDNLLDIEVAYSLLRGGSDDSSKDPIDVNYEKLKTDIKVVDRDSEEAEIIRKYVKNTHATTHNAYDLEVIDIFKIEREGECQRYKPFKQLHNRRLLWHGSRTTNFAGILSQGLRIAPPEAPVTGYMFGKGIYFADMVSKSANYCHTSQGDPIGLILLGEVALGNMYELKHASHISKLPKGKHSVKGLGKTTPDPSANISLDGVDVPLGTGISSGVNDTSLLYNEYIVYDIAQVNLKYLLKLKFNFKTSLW
Protocol: The activity of the compounds according to the present invention to inhibit the PARP-1 enzyme was examined using a PARP Assay kit (4671-096-K) purchased from Trevigen. The assay was performed following a modified previously reported method by Lee et al [Methods Find, Exp. Clin. Pharmacol., 27, 617-622, 2005].
Histone was coated on 384-well plate, which is a small volume PS plate (784101) of Greiner Bio-One, and left at 25° C. for 2 hours. After that, the plate was rinsed four times with PBS (7.5 mM Na2HPO4, 2.5 mM NaH2PO4, 145 mM NaCl, pH 7.4), and in order to prevent non-specific reaction, the Strep-diluent (provided from kit of Trevigen) was added and left at 25° C. for one hour. After one hour, the plate was again rinsed with PBS four times, and the compounds of the Examples in various concentrations were put into reactant containing PARP-1 enzyme (0.12 unit/well), 2×PARP cocktail (1.95 mM NAD^+, 50 uM biotinylated NAD^+, and activated DNA in 50 mM Tris pH 8.0, 25 mM MgCl2) and allowed to react at 25° C. for 30 minutes. After 30 minutes, each well was rinsed with PBS four times, and in order to measure the amount of rybosylation by the PARP enzyme, strepavidin-linked peroxidase (Strep-HRP, 1:1000 diluted) was added and allowed to react at 37° C. for 30 minutes. The plate was rinsed with PBS four times, and TACS-Sapphire substrate was put and allowed to react at 25° C. for 10 minutes so that color reaction occurred. Finally, the reaction was terminated by the addition of 0.2 N HCl. The amount of histone ribosylation formed by PARP-1 enzyme was quantified at 450 nm using Wallac EnVision™ (PerkinElmer Oy, Turku, Finland).

[3] = PARP-1 enzyme, histone ribosylation, 450 nm

Sequence of PARP-1 enzyme (Cricetulus griseus (Chinese hamster) (Cricetulus barabensis griseus), UniProt Q9R152) (Q9R152 whole entry): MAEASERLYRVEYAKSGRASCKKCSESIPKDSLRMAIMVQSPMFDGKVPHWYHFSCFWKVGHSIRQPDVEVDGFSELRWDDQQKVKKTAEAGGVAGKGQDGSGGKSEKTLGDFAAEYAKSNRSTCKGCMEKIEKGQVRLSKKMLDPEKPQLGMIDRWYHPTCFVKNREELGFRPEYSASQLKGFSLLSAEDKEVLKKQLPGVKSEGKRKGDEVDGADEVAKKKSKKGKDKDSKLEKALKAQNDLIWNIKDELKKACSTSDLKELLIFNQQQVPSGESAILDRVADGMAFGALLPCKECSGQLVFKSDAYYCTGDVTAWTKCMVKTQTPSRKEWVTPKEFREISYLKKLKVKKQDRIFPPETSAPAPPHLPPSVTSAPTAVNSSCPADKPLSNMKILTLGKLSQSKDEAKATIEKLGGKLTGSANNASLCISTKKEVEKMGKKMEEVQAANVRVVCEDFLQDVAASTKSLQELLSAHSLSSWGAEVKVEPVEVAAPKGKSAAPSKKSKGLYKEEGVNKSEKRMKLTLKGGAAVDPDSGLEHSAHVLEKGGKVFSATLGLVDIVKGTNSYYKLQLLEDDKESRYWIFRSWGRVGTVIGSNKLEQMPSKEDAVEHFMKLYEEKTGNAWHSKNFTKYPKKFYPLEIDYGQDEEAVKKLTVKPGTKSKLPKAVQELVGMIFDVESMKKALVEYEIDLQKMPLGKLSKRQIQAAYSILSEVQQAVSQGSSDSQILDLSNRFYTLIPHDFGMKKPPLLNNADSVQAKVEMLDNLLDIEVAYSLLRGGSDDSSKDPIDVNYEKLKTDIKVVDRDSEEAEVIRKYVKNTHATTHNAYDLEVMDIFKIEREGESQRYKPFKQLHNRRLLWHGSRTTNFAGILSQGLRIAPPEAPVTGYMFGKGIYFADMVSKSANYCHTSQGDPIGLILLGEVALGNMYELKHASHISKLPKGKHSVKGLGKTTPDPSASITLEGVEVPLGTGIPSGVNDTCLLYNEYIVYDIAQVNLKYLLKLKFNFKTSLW

Compound	IC50 (PARP-1 enzyme [1])	IC50 (PARP-1 enzyme [2]; [3])	IC50 (PARP-1 enzyme [2])	also measured
O=c1[nH]c2ccc(OCCN3CCCCC3)cc2c2c1CCCN2 [Example 17, 9-[2-(Piperidine-1yl)ethoxy]-1,2,3,4-tetrahydrobenzo[h][1,6]naphthyridine-5(6H)-one dihydrochloride]	1630 nM	< 1000 nM	460 nM	–
COCCOc1ccc2[nH]c(=O)c3c(c2c1)NCCC3 [Example 18, 9-(2-Methoxyethoxy)-1,2,3,4-tetrahydrobenzo[h][1,6]naphthyridine-5(6H)-one hydrochloride]	3710 nM	1520 nM	–	–
CCOc1ccc2[nH]c(=O)c3c(c2c1)NCCC3 [Example 20, 9-Ethoxy-1,2,3,4-tetrahydrobenzo[h][1,6]naphthyridine-5(6H)-one hydrochloride]	1300 nM	1540 nM	–	–
CN(C)CCc1ccc2c3c(c(=O)[nH]c2c1)CCCN3 [Example 32, 8-[2-(Dimethylamino)ethyl]-1,2,3,4-tetrahydrobenzo[h][1,6]naphthyridine-5(6H)-one dihydrochloride]	3160 nM	< 1000 nM	230 nM	–
CN(C)c1ccc2c3c(c(=O)[nH]c2c1)CCCN3 [Example 37, 8-(Dimethylamino)-1,2,3,4-tetrahydrobenzo[h][1,6]naphthyridine-5(6H)-one hydrochloride]	–	> 4000 nM	–	IC50 (PARP-1 enzyme [1]; CHO-K1 cells, NAD(P)H released 4 hours after MMS treatment, read-out: PARP-1 Inhibitory activity IC50): 4860 nM
CC(c1ccc2c3c(c(=O)[nH]c2c1)CCCN3)N(C)C (centres unmarked) [Example 38, 8-[1-(Dimethylamino)ethyl]-1,2,3,4-tetrahydrobenzo[h][1,6]naphthyridine-5(6H)-one dihydrochloride]	140 nM	< 1000 nM	50 nM	–
CN(C)Cc1ccc2c3c(c(=O)[nH]c2c1)CCCN3 [Example 41, 8-[(Dimethylamino)methyl]-1,2,3,4-tetrahydrobenzo[h][1,6]naphthyridine-5(6H)-one dihydrochloride]	50 nM	–	40 nM	–
CCNCc1ccc2c3c(c(=O)[nH]c2c1)CCCN3 [Example 43, 8-[(Ethylamino)methyl]-1,2,3,4-tetrahydrobenzo[h][1,6]naphthyridine-5(6H)-one dihydrochloride]	1770 nM	–	160 nM	–
O=c1[nH]c2cc(CN3CCCC3)ccc2c2c1CCCN2 [Example 44, 8-(Pyrrolidine-1-ylmethyl)-1,2,3,4-tetrahydrobenzo[h][1,6]naphthyridine-5(6H)-one dihydrochloride]	340 nM	–	–	IC50 (PARP-1 enzyme [2]; dihydrochloride): 60 nM
CCN(C)Cc1ccc2c3c(c(=O)[nH]c2c1)CCCN3 [Example 47, 8-{[Ethyl(methyl)amino]methyl}-1,2,3,4-tetrahydrobenzo[h][1,6]naphthyridine-5(6H)-one dihydrochloride]	250 nM	–	70 nM	–
O=c1[nH]c2cc(CN3CCCCC3)ccc2c2c1CCCN2 [Example 48, 8-(Piperidine-1-ylmethyl)-1,2,3,4-tetrahydrobenzo[h][1,6]naphthyridine-5(6H)-one dihydrochloride]	430 nM	–	130 nM	–
CN(CCO)Cc1ccc2c3c(c(=O)[nH]c2c1)CCCN3 [Example 53, 8-{[(2-Hydroxyethyl)(methyl)amino]methyl}-1,2,3,4-tetrahydrobenzo[h][1,6]naphthyridine-5(6H)-one dihydrochloride]	290 nM	–	50 nM	–
CCCN(C)Cc1ccc2c3c(c(=O)[nH]c2c1)CCCN3 [Example 56, 8-[(Methyl(propyl)amino)methyl]-1,2,3,4-tetrahydrobenzo[h][1,6]naphthyridine-5(6H)-one dihydrochloride]	470 nM	–	180 nM	–
CN(C)Cc1ccc2c3c(c(=O)[nH]c2c1)CCCN3C [Example 66, 8-[(Dimethylamino)methyl]-1-methyl-1,2,3,4-tetrahydrobenzo[h][1,6]naphthyridine-5(6H)-one dihydrochloride]	320 nM	< 1000 nM	90 nM	–
CNCc1cc(OC)c2c3c(c(=O)[nH]c2c1)CCCN3 [Example 73, 10-Methoxy-8-[(methylamino)methyl]-1,2,3,4-tetrahydrobenzo[h][1,6]naphthyridine-5(6H)-one dihydrochloride]	1390 nM	–	100 nM	–
COc1cc(CN(C)C2CCCC2)cc2[nH]c(=O)c3c(c12)NCCC3 [Example 92, 8-{[Cyclopentyl(methyl)amino]methyl}-10-methoxy-1,2,3,4-tetrahydrobenzo[h][1,6]naphthyridine-5(6H)-one dihydrochloride]	–	–	190 nM	–
COc1cc(CN(C)C(C)C)cc2[nH]c(=O)c3c(c12)NCCC3 [Example 93, 8-{[Isopropyl(methyl)amino]methyl}-10-methoxy-1,2,3,4-tetrahydrobenzo[h][1,6]naphthyridine-5(6H)-one dihydrochloride]	–	–	140 nM	–
COc1cc(CN(C)CCF)cc2[nH]c(=O)c3c(c12)NCCC3 [Example 94, 8-{[(2-Fluoroethyl)(methyl)amino]methyl}-10-methoxy-1,2,3,4-tetrahydrobenzo[h][1,6]naphthyridine-5(6H)-one dihydrochloride]	–	–	170 nM	–
O=c1[nH]c2cc(Cc3nnn[nH]3)ccc2c2c1CCCN2 [Example 95, 8-[(1H-tetrazole-5-yl)methyl]-1,2,3,4-tetrahydrobenzo[h][1,6]naphthyridine-5(6H)-one hydrochloride]	–	–	490 nM	–
COc1cc(CNN2CCOCC2)cc2[nH]c(=O)c3c(c12)NCCC3 [Example 96, 10-Methoxy-8-[(morpholinoamino)methyl]-1,2,3,4-tetrahydrobenzo[h][1,6]naphthyridine-5(6H)-one trihydrochloride]	–	–	770 nM	–
COc1cc(CN(C)N2CCOCC2)cc2[nH]c(=O)c3c(c12)NCCC3 [Example 97, 10-Methoxy-8-{[methyl(morpholino)amino]methyl}-1,2,3,4-tetrahydrobenzo[h][1,6]naphthyridine-5(6H)-one trihydrochloride]	–	–	900 nM	–
CCOc1cc(CN(C)C)cc2[nH]c(=O)c3c(c12)NCCC3 [Example 100, 8-[(Dimethylamino)methyl]-10-etoxy-1,2,3,4-tetrahydrobenzo[h][1,6]naphthyridine-5(6H)-one dihydrochloride]	60 nM	–	–	–
CCOc1cc(CN2CCCCC2)cc2[nH]c(=O)c3c(c12)NCCC3 [Example 102, 10-Ethoxy-8-(piperidine-1-ylmethyl)-1,2,3,4-tetrahydrobenzo[h][1,6]naphthyridine-5(6H)-one dihydrochloride]	–	–	180 nM	–
COc1cc(CO)cc2[nH]c(=O)c3c(c12)NCCC3 [Example 105, 8-(Hydroxymethyl)-10-methoxy-1,2,3,4-tetrahydrobenzo[h][1,6]naphthyridine-5(6H)-one hydrochloride]	–	190 nM	–	–
COc1cc(CNCCN2CCOCC2)cc2[nH]c(=O)c3c(c12)NCCC3 [Example 107, 10-Methoxy-8-[(2-morpholinoethylamino)methyl)-1,2,3,4-tetrahydrobenzo[h][1,6]naphthyridine-5(6H)-one trihydrochloride]	–	–	70 nM	–
NCc1ccc2c3c(c(=O)[nH]c2c1)CCCN3 [Example 112, 8-(Aminomethyl)-1,2,3,4-tetrahydrobenzo[h][1,6]naphthyridine-5 (6H)-one dihydrochloride]	–	–	170 nM	–
COc1cc(CN(C)C2CCOCC2)cc2[nH]c(=O)c3c(c12)NCCC3 [Example 115, 10-Methoxy-8-{[methyl(tetrahydro-2H-pyran-4-yl)amino]methyl}-1,2,3,4-tetrahydrobenzo[h][1,6]naphthyridine-5(6H)-one dihydrochloride]	–	–	410 nM	–
COCCOc1cc(CN(C)C)cc2[nH]c(=O)c3c(c12)NCCC3 [Example 116, 8-[(Dimethylamino)methyl]-10-(2-methoxyetoxy)-1,2,3,4-tetrahydrobenzo[h][1,6]naphthyridine-5(6H)-one dihydrochloride]	–	180 nM	–	–

From patent publication US8815891B2, “Tricyclic derivative or pharmaceutically acceptable salts thereof, preparation method thereof, and pharmaceutical composition containing the same” (Je Il Pharmaceutical Co., Ltd., priority 2008, dated 2014)
